In US6429212B1, “Medicinal composition” (Ishihara Sangyo Kaisha Ltd., priority 1996, dated 2002):

Experiments:
[1] = test system: TNF-α production or secretion by human leukemia cells HL-60 (TPA stimulation); assay: Influence on TNF-α production or secretion by HL-60 cells stimulated by TPA (ELISA of supernatant); format: cell-based; conditions: for amount of TNF-α, TPA alone = 100%: HL-60, TPA stimulation (Table 11); for amount of TNF-α in the supernatant, TPA alone = 100%: HL-60, TPA 10 nM, 16 hours (Table 9)
Procedure: (§1) Human leukemia cells HL-60 produce tumor necrosis factor (TNF-α) by stimulation of Okadaic acid (9,10-Deepithio-9,10-didehydroacanthifolicin) or 12O-tetradecanoyl phorbol-13-acetate (TPA). Influences of the compounds of the present invention to production or secretion of TNF-α by them were observed.
The same operation was carried out as in Test Example 1, except that TPA (produced by Sigma) having a final concentration of 10 nM was used, instead of Okadaic acid having a final concentration of 50 nM.
The values in the Table are values obtained by supposing the amount of TNF-α in the supernatant of the culture medium when treated only with TPA having a final concentration of 10 nM, 100%.
Human leukemia cells (HL-60) produce tumor necrosis factor (TNF-α) by stimulation of 12O-tetradecanoyl phorbol-13-acetate (TPA). The influences of the compounds of the present invention to production of TNF-αby it were observed.
(§2) Human leukemia cells (HL-60) were cultured by using a RPMI 1640 culture medium (including 5% fetal bovine serum), in a carbonic acid gas incubator (5% CO2, humidified, 37° C.). Then, the cells were pre-cultured in a RPMI 1640 culture medium (including 10% fetal bovine serum). TPA was added thereto, so that the final concentration was 10 nM based on the HL-60 cells (5×10^5 cells/ml) in an exponentially growing stage. Then, the compound of the present invention was added thereto so that the predetermined concentration could be obtained, to prepare a cell suspension, which was then cultured in a carbonic gas incubator (5% CO2, humidified, 37° C.). In this culture, a multiplate having 24 holes (produced by Corning) was used, and the cell suspension was injected in an amount of 0.5 ml per hole, to culture the cells.
16 hours after the culture started, the cells were removed by centrifugation(1000-2000 rpm×10 min), and the amount of TNF-α in the supernatant was measured in accordance with the method of Amersham, by using human TNF-α ELISA system (produced by Amersham).
The values are obtained by supposing the amount of TNF-α when treated only with TPA having a final concentration of 10 nM, 100%.
The influences of the compounds of the present invention to production or secretion of TNF-α by TPA stimulation were observed, in the same manner as in Test Example 2.

[2] = test system: TNF-α production or secretion by human leukemia cells HL-60 (Okadaic acid stimulation); assay: Influence on TNF-α production or secretion by HL-60 cells stimulated by Okadaic acid (ELISA of supernatant); format: cell-based; conditions: HL-60, Okadaic acid 50 nM, 16 hours (Table 8)
Procedure: as §1
as §2, with “bovine serum). Okadaic acid was added” for “bovine serum). TPA was added”, “concentration was 50 nM based” for “concentration was 10 nM based”, “a carbonic acid gas incubator” for “a carbonic gas incubator”
16 hours after the culture started, the cells were removed by centrifugation (1000-2000 rpm×10 min), and the amount of TNF-α in the supernatant was measured in accordance with the method of Amersham, by using human TNF-α ELISA system (produced by Amersham).
The values in the Table are values obtained by supposing the amount of TNF-αin the supernatant of the culture medium when treated only with Okadaic acid having a final concentration of 50 nM, 100%.
Influences of the compounds of the present invention to production or secretion of TNF-α by Okadaic acid stimulation were observed, in the same manner as in Test Example 1.

[3] = test system: angiogenesis under skin of mice; assay: Angiogenesis under skin of mice (b-FGF matrigel, amount of hemoglobin); format: in vivo, BALB/c male mice; set-up: key to Amount of hemoglobin, value in parentheses (Control = 100): % of control (control = 100), hemoglobin per matrigel; conditions: for Amount of hemoglobin, value in parentheses (Control = 100): experiment (b) (Table 15); for Amount of hemoglobin: experiment (b), Control 83.3 (Table 15)
Procedure: By subcutaneously injecting a mixture having recombinant human fibroblast growth factor-basic added to matrigel, to the back of a mice, angiogenesis occurs under skin of the mice. By measuring the amount of hemoglobin in matrigel, angiogenesis can be quantified. Influences of the compounds of the present invention to angiogenesis were observed.
Matrigel (trademark; basement membrane matrix, phenol is not included, purchased from Becton Dickinson Labware) was added to Dulbecco's modified Eagle's medium (purchased from Sigma), so that the concentration was 9 mg/ml. Recombinant Human Fibroblast Growth Factor-basic (b-FGF, produced by Intergen) was added thereto, so that the concentration was 2 μg/700 μl. The mixture was subcutaneously injected to 6-week BALB/c male mice (Charles River Japan Inc.) in an amount of 700 μl per mouse. Everyday after matrigel injection, a suspension having the compound of the present invention added to 0.8% Tween 80 (purchased from Nacalai Tesque), so that the predetermined concentration could be obtained, was intraperitoneally injected to the mice. 8 days after matrigel injection, matrigel was taken out from the mice, which was then placed in 200 μl of 1% NH4OH at room temperature for 4 hours, to extract hemoglobin. The extraction and matrigel together were subjected to centrifugal separation (10000 rpm, 5 min). 100 μl of the obtained supernatant and 500 μl of Drabkin's reagent (purchased from Sigma) were mixed and left at room temperature. After left more than 15 minutes, absorbance of the supernatant at a wavelength of 540 nm was measured by using a spectrophotometer SPECTRA max 250 (produced by Molecular Devices). The amount of hemoglobin in the supernatant was obtained from the standard curve prepared by using hemoglobin standard (purchased from Sigma), and the amount of hemoglobin per matrigel obtained from a mouse was calculated.
The amount of the hemoglobin in each treatment fraction was corrected by the amount of hemoglobin wherein matrigel having no b-FGF added was injected to the mice, and 0.8% Tween 80 as a solvent alone was injected everyday.
Influences of the compounds of the present invention to angiogenesis under skin of mice were observed, in the same manner as in Test Example 8.

Structure (SMILES) | melting point [°C] | amount of TNF-α, TPA alone = 100% ([1]; compound 100 μM) [%] | amount of TNF-α, TPA alone = 100% ([1]; compound 10 μM) [%] | amount of TNF-α in the supernatant, TPA alone = 100% ([1]; compound 10 nM) [%] | amount of TNF-α in the supernatant, TPA alone = 100% ([1]; compound 100 nM) [%] | amount of TNF-α in the supernatant, TPA alone = 100% ([1]; compound 0.3 μM) [%] | amount of TNF-α in the supernatant, Okadaic acid alone = 100% ([2]; compound 1 nM) [%] | amount of TNF-α in the supernatant, Okadaic acid alone = 100% ([2]; compound 10 nM) [%] | amount of TNF-α in the supernatant, Okadaic acid alone = 100% ([2]; compound 100 nM) [%] | amount of TNF-α in the supernatant, Okadaic acid alone = 100% ([2]; compound 0.3 μM) [%] | Amount of hemoglobin, value in parentheses (Control = 100) ([3]; 1 mg/kg) | Amount of hemoglobin ([3]; 1 mg/kg) [μg/gel] | Amount of hemoglobin, value in parentheses (Control = 100) ([3]; 5 mg/kg) | Amount of hemoglobin ([3]; 5 mg/kg) [μg/gel]
CSc1ccccc1N1C(=O)c2ccc(C)cc2C1=O [Compound 195] | 175 to 177 |  |  |  |  |  |  |  |  |  |  |  |  | 
CC(C)c1cccc(C(C)C)c1N1Cc2ccccc2C1 [Compound 144, N-(2,6-diisopropylphenyl)isoindoline] | 130.9 to 132 | 319 |  |  |  |  |  |  |  |  |  |  |  | 
Cc1ccc2c(c1)C(=O)N(c1c(C(C)C)cccc1C(C)C)C2=O [Compound 171] | 162.9 to 163.2 |  | 421 |  |  |  |  |  |  |  |  |  |  | 
C[C@H](c1ccccc1)N1C(=O)c2cccc([N+](=O)[O-])c2C1=O [Compound 84, (R)-2-(1-phenylethyl)-4-nitro-1H-isoindole-1,3-dione] | 115 to 117 |  |  | 100 | 121 | 195 | 99 | 104 | 88 | 52 |  |  |  | 
C[C@@H](c1ccccc1)N1C(=O)c2cccc([N+](=O)[O-])c2C1=O [Compound 83, (S)-2-(1-phenylethyl)-4-nitro-1H-isoindole-1,3-dione] | 115 to 117 |  |  | 122 | 187 | 239 | 100 | 99 | 85 | 61 |  |  |  | 
CC(C)c1cccc(C(C)C)c1N1C(=O)c2ccc(C(C)(C)C)cc2C1=O [Compound 173, N-(2,6-diisopropylphenyl)-5-tert-butyl phthalimide] | 234 to 234.8 |  | 251 |  |  |  |  |  |  |  |  |  |  | 
C[C@H](C1CCCCC1)N1C(=O)c2c(F)c(F)c(F)c(F)c2C1=O [Compound 69, (R)-2-(1-cyclohexylethyl)-4,5,6,7-tetrafluoro-1H-isoindole-1,3-dione] |  |  |  | 100 | 102 | 98 | 101 | 95 | 59 | 10 | 93 | 77.2 | 49 | 41.1
C[C@H](c1cccc2ccccc12)N1C(=O)c2c(F)c(F)c(F)c(F)c2C1=O [Compound 50, (R)-2-(1-naphthylethyl)-4,5,6,7-tetrafluoro-1H-isoindole-1,3-dione] |  |  |  | 100 | 100 | 100 | 100 | 88 | 43 | 2 |  |  | 79 | 65.4
C[C@@H](c1ccccc1)N1C(=O)c2c(F)c(F)c(F)c(F)c2C1=O [Compound 17, (S)-2-(1-phenylethyl)-4,5,6,7-tetrafluoro-1H-isoindole-1,3-dione] |  |  |  | 102 | 120 | 143 | 100 | 99 | 95 | 70 | 21 | 17.3 | 31 | 25.7
CCCCCCOc1ccc2c(c1)C(=O)N(c1c(C(C)C)cccc1C(C)C)C2=O [Compound 193] | 117 to 118 |  |  |  |  |  |  |  |  |  |  |  |  | 
